Where two headings read alike, the source gives them in different places.
Key:
Experiment in all cases: Kinase panel profiling at 1 µmol/L (MSA or IMAP), percentage inhibition
Assay type in all cases: biochemical
[1] = target: panel of 255 wild-type kinases (Homo sapiens, UniProt O00311); details: read-out: %-inhibition CDC7/ASK
[2] = target: T1, panel of 255 wild-type kinases (Homo sapiens, UniProt O43781); details: read-out: %-inhibition at 1 µmol/L, DYRK3
T1 sequence (O43781 1-588): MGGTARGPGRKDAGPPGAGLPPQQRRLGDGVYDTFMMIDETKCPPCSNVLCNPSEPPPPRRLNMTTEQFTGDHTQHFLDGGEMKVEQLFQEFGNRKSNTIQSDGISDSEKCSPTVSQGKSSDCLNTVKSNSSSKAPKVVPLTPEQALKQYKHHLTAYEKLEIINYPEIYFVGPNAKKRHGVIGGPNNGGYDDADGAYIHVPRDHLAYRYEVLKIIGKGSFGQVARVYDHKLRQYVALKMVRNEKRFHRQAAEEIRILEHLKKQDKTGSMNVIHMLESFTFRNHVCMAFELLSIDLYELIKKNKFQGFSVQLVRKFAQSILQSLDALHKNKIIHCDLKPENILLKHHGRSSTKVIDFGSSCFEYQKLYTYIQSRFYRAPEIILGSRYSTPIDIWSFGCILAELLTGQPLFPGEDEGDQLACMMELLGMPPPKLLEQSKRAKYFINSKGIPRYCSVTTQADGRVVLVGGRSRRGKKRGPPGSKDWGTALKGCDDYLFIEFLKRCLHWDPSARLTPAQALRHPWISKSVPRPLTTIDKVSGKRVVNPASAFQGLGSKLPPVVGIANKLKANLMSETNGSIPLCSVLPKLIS

[3] = target: panel of 255 wild-type kinases (Homo sapiens, UniProt P06213); details: read-out: %-inhibition at 1 µmol/L, INSR
[4] = target: panel of 255 wild-type kinases (Homo sapiens, UniProt P07332); details: read-out: %-inhibition at 1 µmol/L, FES
[5] = target: panel of 255 wild-type kinases (Homo sapiens, UniProt P08581); details: MET; 1 µmol/L single concentration
[6] = target: panel of 255 wild-type kinases (Homo sapiens, UniProt P08922); details: read-out: %-inhibition at 1 µmol/L, ROS
[7] = target: panel of 255 wild-type kinases (Homo sapiens, UniProt P17252); details: read-out: %-inhibition at 1 µmol/L, PKCα
[8] = target: panel of 255 wild-type kinases (Homo sapiens, UniProt P49137); details: read-out: %-inhibition at 1 µmol/L, MAPKAPK2
[9] = target: panel of 255 wild-type kinases (Homo sapiens, UniProt Q14680); details: read-out: %-inhibition, MELK
[10] = target: panel of 255 wild-type kinases (Homo sapiens, UniProt Q15208); details: read-out: %-inhibition, NDR1
[11] = target: panel of 255 wild-type kinases (Homo sapiens, UniProt Q86Z02); details: read-out: %-inhibition at 1 µmol/L, HIPK1
[12] = target: panel of 255 wild-type kinases (Homo sapiens, UniProt Q8N4C8); details: read-out: %-inhibition, MINK
[13] = target: T2, panel of 255 wild-type kinases (Homo sapiens, UniProt Q8TDC3); details: read-out: %-inhibition BRSK1
T2 sequence (Q8TDC3 1-778): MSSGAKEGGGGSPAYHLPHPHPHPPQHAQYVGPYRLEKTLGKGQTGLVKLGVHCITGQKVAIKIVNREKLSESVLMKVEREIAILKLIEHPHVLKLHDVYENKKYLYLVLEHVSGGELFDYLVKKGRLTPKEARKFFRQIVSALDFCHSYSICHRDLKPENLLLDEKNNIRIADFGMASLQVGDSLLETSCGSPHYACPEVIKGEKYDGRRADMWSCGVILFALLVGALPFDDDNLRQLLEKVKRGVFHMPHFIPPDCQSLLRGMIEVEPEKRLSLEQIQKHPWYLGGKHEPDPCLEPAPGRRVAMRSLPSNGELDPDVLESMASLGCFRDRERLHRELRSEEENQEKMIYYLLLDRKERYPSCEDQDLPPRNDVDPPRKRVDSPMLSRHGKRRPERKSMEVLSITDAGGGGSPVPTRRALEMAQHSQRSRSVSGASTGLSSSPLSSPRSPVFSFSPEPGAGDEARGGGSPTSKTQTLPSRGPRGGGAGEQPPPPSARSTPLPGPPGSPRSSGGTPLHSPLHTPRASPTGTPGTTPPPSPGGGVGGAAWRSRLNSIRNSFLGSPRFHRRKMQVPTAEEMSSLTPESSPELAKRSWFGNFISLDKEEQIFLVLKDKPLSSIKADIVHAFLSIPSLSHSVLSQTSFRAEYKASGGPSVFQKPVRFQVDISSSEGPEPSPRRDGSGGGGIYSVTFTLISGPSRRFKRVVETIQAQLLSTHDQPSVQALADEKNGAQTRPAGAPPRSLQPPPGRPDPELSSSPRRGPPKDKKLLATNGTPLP

[14] = target: panel of 255 wild-type kinases (Homo sapiens, UniProt Q9P0L2); details: read-out: %-inhibition, MARK1
[15] = target: panel of 255 wild-type kinases (Homo sapiens, UniProt Q9P289); details: read-out: %-inhibition, MST4
[16] = target: panel of 255 wild-type kinases (Homo sapiens, UniProt Q9UQM7); details: read-out: %-inhibition CaMK2α
[17] = CDC7/ASK kinase assay, 1 µmol/L single concentration
[18] = kinase DYRK3, 1 µmol/L single concentration
[19] = kinase INSR, 1 µmol/L single concentration
[20] = kinase FES, 1 µmol/L single concentration
[21] = kinase ROS, 1 µmol/L single concentration
[22] = kinase PKCα, 1 µmol/L single concentration
[23] = kinase MAPKAPK2, 1 µmol/L single concentration
[24] = MELK, 1 µmol/L single concentration
[25] = NDR1, 1 µmol/L single concentration
[26] = kinase HIPK1, 1 µmol/L single concentration
[27] = MINK, 1 µmol/L single concentration
[28] = BRSK1 kinase assay, 1 µmol/L single concentration
[29] = MARK1, 1 µmol/L single concentration
[30] = MST4, 1 µmol/L single concentration
[31] = CaMK2α kinase assay, 1 µmol/L single concentration

Compound | inhibition at 1 µM [1, 17] [%] | inhibition at 1 µM [2, 18] [%] | inhibition at 1 µM [3, 19] [%] | inhibition at 1 µM [4, 20] [%] | inhibition at 1 µM [5] [%] | inhibition at 1 µM [6, 21] [%] | inhibition at 1 µM [7, 22] [%] | inhibition at 1 µM [8, 23] [%] | inhibition at 1 µM [9, 24] [%] | inhibition at 1 µM [10, 25] [%] | inhibition at 1 µM [11, 26] [%] | inhibition at 1 µM [12, 27] [%] | inhibition at 1 µM [13, 28] [%] | inhibition at 1 µM [14, 29] [%] | inhibition at 1 µM [15, 30] [%] | inhibition at 1 µM [16, 31] [%] | further results
Cc1nc(NC(=O)N2CCC[C@H]2C(N)=O)sc1-c1ccnc(C(C)(C)C(F)(F)F)c1 [alpelisib] | -0.499 | 10 | -2.57 | -3.47 | -1 | -6 | 1.21 | -16 | 0.22 | 0.245 | 9 | -2 | 12 | -0.158 | -12 | -1.21 | 
Cn1cc(-c2cc3c(N4CCN(c5ncc([C@@](C)(N)c6ccc(F)cc6)cn5)CC4)ncnn3c2)cn1 [avapritinib] | 0.0396 | 49 | 4.71 | 1.65 | 16 | 67 | 5 | -0.02 | 9 | -1.28 | 1.58 | 4.44 | 8.49 | -10 | 7 | -2.45 | 
Cn1cnc2c(F)c(Nc3ccc(Br)cc3F)c(C(=O)NOCCO)cc21 [binimetinib] | -0.214 | -3.3 | 6 | 6 | 0.851 | 16 | -0.116 | -13 | -1.8 | -1.86 | 0.44 | -4.54 | -0.585 | 0.905 | 0.492 | -4.55 | 
CNC(=O)c1ccc(-c2cnc3ncc(Cc4ccc5ncccc5c4)n3n2)cc1F [capmatinib] |  |  |  |  |  |  |  |  |  |  |  |  |  |  |  |  | inhibition at 1 µM [1]: -1.4%; inhibition at 1 µM [2]: 4.5%; inhibition at 1 µM [3]: 4.5%; inhibition at 1 µM [4]: -2%; inhibition at 1 µM [6]: 21%; inhibition at 1 µM [7]: -3.51%; inhibition at 1 µM [8]: -28%; inhibition at 1 µM [9]: -4%; inhibition at 1 µM [10]: -0.897%; inhibition at 1 µM [11]: -2.58%; inhibition at 1 µM [12]: -4%; inhibition at 1 µM [13]: 0.113%; inhibition at 1 µM [14]: -5.32%; inhibition at 1 µM [15]: -2.24%; inhibition at 1 µM [16]: -0.603%
COc1cc2ncnc(Nc3ccc(F)c(Cl)c3)c2cc1NC(=O)/C=C/CN1CCCCC1 [dacomitinib] | 0.799 | 18 | 1.81 | 1.56 | 24 | 22 | -4.53 | -40 | 15 | -0.0726 | 3.42 | 7.37 | 14 | -2 | 12 | -1.13 | 
CN1CCN(c2ccc(C(=O)Nc3n[nH]c4ccc(Cc5cc(F)cc(F)c5)cc34)c(NC3CCOCC3)c2)CC1 [entrectinib] | 0.952 | -3 | 94 | 68 | 24 |  | 20 | -14 |  | 49 | 11 | 1.64 | 8 | 19 | 6 | 12 | 
CCc1nc(C(N)=O)c(Nc2ccc(N3CCC(N4CCN(C)CC4)CC3)c(OC)c2)nc1NC1CCOCC1 [gilteritinib] | 3 | 27 | 100 | 76 | 90 | 100 |  | -27 | 75 | 68 | 71 | 80 | 23 | 27 | 4.67 | 36 | 
C[C@H]1Oc2cc(cnc2N)-c2c(nn(C)c2C#N)CN(C)C(=O)c2ccc(F)cc21 [lorlatinib] | -2 | -3.41 | 64 |  | 4.66 | 101 | 12 | -14 | 4 | 3.5 | -1.71 | -0.198 | 29 | 11 | -8 | 3.76 | 
FC(F)(F)c1ccc(CNc2ccc(Cc3c[nH]c4ncc(Cl)cc34)cn2)cn1 [pexidartinib] | 0.521 | 8 | 17 | 27 |  | 37 | -8 | -32 | 3 | 13 | 4.72 | 9 | 9 | 3 | 7 | -4 | 

From article PMC9516332 (Frontiers in Oncology, 2022)
